Experimental findings from paper PMC7838297, “Acyl-CoA thioesterase activity of peroxisomal ABC protein ABCD1 is required for the transport of very long-chain acyl-CoA into peroxisomes” (Scientific Reports, 2021) are described below.

Holding throughout (assay type): biochemical
For test [1], the target named is T1, His-ABCD1 (human ABCD1) (Homo sapiens, UniProt P33897).
T1 construct: full-length, His-tagged (tag kept), expressed in Komagataella phaffii pxa1-delta, beta-DDM-solubilised, metal-chelate purified, reconstituted into soybean PC liposomes; about 80 kDa band
The test can be described thus: ATPase, phosphate release. The conditions noted are these: 5 mM ATP, 11 mM MgCl2, pH 7.6, 37 °C; ABCD1-liposomes.

For test [2], the target named is T2, His-KpFAA2 (Komagataella phaffii, UniProt F2QZH2).
T2 construct: gene FAA2; His-tagged, expressed in K. phaffii SMD1168, metal-chelate purified as for His-ABCD1
T2 sequence (F2QZH2 1-741): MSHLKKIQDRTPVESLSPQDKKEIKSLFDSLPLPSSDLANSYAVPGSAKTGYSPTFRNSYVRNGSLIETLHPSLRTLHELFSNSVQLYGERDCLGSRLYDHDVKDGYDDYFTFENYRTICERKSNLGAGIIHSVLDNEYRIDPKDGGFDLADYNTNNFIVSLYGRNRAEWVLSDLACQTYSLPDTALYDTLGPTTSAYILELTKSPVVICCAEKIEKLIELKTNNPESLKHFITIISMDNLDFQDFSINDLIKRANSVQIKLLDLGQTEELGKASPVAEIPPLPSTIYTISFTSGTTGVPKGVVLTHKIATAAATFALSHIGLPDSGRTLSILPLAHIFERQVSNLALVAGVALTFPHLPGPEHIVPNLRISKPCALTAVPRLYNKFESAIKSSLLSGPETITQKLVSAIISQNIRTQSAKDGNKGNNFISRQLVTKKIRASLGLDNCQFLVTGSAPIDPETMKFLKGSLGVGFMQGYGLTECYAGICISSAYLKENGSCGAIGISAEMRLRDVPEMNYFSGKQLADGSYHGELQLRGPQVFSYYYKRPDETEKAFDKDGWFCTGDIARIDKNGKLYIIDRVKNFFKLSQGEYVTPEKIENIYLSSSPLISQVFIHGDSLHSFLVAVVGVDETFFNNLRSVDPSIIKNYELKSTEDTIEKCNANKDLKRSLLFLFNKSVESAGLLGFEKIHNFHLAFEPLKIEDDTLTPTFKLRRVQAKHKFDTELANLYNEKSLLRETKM
Briefly: acyl-CoA synthesis, TLC. The settings on record: 5 mM CoA, 5 mM ATP, 5 mM MgCl2, pH 7.5, 30 °C, 3 h.

The target in test [3] is T3, His-ABCD1 (human ABCD1) (Homo sapiens, UniProt P33897, K513A).
T3 construct: full-length, His-tagged (tag kept), expressed in Komagataella phaffii pxa1-delta, beta-DDM-solubilised, metal-chelate purified, reconstituted into soybean PC liposomes; about 80 kDa band
T3 sequence (P33897 1-745 K513A): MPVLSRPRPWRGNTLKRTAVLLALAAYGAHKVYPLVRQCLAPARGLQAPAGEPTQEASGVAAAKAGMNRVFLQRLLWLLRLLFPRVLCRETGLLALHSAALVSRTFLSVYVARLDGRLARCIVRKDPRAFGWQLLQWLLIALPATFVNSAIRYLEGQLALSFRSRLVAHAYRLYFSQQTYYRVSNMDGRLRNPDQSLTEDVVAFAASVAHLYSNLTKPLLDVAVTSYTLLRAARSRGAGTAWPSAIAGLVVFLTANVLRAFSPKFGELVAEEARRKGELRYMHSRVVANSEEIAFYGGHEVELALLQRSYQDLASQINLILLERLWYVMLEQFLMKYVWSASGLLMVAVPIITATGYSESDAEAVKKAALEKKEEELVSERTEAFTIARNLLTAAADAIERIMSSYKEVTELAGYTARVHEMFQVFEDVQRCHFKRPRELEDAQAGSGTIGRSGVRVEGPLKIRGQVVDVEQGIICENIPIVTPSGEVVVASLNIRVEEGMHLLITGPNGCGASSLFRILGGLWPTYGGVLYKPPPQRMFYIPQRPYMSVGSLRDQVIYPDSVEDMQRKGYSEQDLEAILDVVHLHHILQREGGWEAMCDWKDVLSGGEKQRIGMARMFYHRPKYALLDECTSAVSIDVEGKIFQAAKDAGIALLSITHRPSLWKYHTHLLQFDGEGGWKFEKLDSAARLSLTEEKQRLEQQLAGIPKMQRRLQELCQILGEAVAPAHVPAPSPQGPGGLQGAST
Briefly: thioesterase assay by TLC; in-gel fluorescence of acylated protein. The settings on record: 1 mM MgCl2, 37 °C, 30 min; mutant liposomes; covalent acyl intermediate.

For test [4], the target named is T1, His-ABCD1 (human ABCD1). Described as above. The conditions noted are these: 1 mM MgCl2, 37 °C; ABCD1-liposomes; covalent acyl (thioester) intermediate.
The target in test [5] is T1, His-ABCD1 (human ABCD1). The test can be described thus: liposome transport assay of NBD-C16, dithionite quench, TLC. The settings on record: read-out: residual NBD-C16 transport at 20 μM.

As to `Nc1ncnc2c1ncn2[C@@H]1O[C@H](COP(=O)(O)OP(=O)(O)OP(=O)(O)O)[C@@H](O)[C@H]1O` [ATP], the “ATPase, phosphate release” value in test [1] was “ABCD1-liposomes possess ATPase activity”.

Regarding `O=C(O)CCCCCNc1ccc([N+](=O)[O-])c2nonc12` [NBD-C6], the “acyl-CoA synthesis, TLC” value in test [2] is recorded as “NBD-C6) was incubated with purified His-KpFAA2 to generate NBD-hexanoyl-CoA”.

`CC(C)(COP(=O)(O)OP(=O)(O)OC[C@H]1O[C@@H](n2cnc3c(N)ncnc32)[C@H](O)[C@@H]1OP(=O)(O)O)[C@@H](O)C(=O)NCCC(=O)NCCSC(=O)CCCCCCCCCCCCCCCNc1ccc([N+](=O)[O-])c2nonc12` [NBD-C16-CoA]: the “thioesterase assay by TLC; in-gel fluorescence of acylated protein” value in test [3] was “these mutants possess ACOT activity comparable to the wild type and exhibited covalent linkage”; in test [4], “demonstrating that ABCD1 is covalently labeled by NBD-C16”.

On to `CCCCCCCCCCCCCCCC(=O)SCCNC(=O)CCNC(=O)[C@H](O)C(C)(C)COP(=O)(O)OP(=O)(O)OC[C@H]1O[C@@H](n2cnc3c(N)ncnc32)[C@H](O)[C@@H]1OP(=O)(O)O` [palmitoyl-CoA], for which the remaining activity at 20 µM in test [5] came to 3.95 ± 0.7%.
